Data taken from paper PMC6925188, “PBRM1 acts as a p53 lysine-acetylation reader to suppress renal tumor growth” (Nature Communications, 2019).
Marks after values point to notes of the source that are not given here.

What was measured:
[1] = tested on: ACHN, Caki-1 and Ren-01 cells; experiment: Immunoblot of p53 targets, kidney cancer cells with PBRM1 shRNA knockdown; assay type: cell-based; conditions: 50 μM etoposide, Caki-1 and Ren-01
Procedure: (§1) Lysates were analyzed by immunoblots. c RCC4 cells with or without p53 KO were transfected with vector or Flag-PBRM1 at the indicated amounts. […] Cells were harvested for RT-qPCR (g) or ChIP followed by qPCR (h). […] Representative data is shown in i. Quantification of cell cycle phase is shown in j. Source data are provided as a Source Data file.
After washing with ice-cold PBS, cells were scraped on ice and centrifuged at 10,000 × g for 1 min at 4 °C. For immunoblot analysis, cell pellets were lysed in 1% SDS containing a protease inhibitor cocktail followed by sonication with a FB50 sonic dismembrator (Fisher Scientific) at 20% amplitude for 15 s twice. After centrifuging for 10 min at 14,000 × g, the supernatants were combined with 5X SDS loading buffer (5% mercaptoethanol, 0.05% Bromophenol blue, 30% glycerol, 10% SDS, 250 mM Tris-HCl (pH 6.8)), boiled for 5 min and used in SDS-PAGE. After standard western blot procedures, the blots were developed using the ImageQuant LAS 4000 (GE healthcare Life Sciences) or ChemiDoc MP Imaging System (Bio-rad) with HyGLO™ Chemiluminescent HRP Detection Reagent (E2500, Denville Scientific) or Immobilon™ Western Chemiluminescent HRP Substrate (WBKLS0500, Millipore). […]
the indicated times. Lysates were analyzed via immunoblots. b. […]
were analyzed by immunoblots. c. […]
Lysates were analyzed via immunoblots. e. […]
Lysates were analyzed via immunoblots. f, g, h. […]

endogenous PBRM1 and p53 [2] = experiment: Endogenous p53 immunoprecipitation, kidney cancer cell lines; assay type: cell-based; conditions: ACHN, Caki-1 and Ren-01; 50 μM, 8 h
Procedure: For endogenous p53 immunoprecipitations, cell pellets were lysed in EBC buffer with protease and phosphatase inhibitors, 2 μM TSA and 10 mM NAM. Lysates (approximately 2 mg of total protein) were incubated with 2 μg p53 antibody (DO-1) overnight at 4 °C followed by incubation with protein A/G plus Sepharose (sc-2003, Santa Cruz Biotechnology) for 2 h. Beads were washed with EBC buffer four times, mixed with 1X SDS loading buffer (1% mercaptoethanol, 0.01% Bromophenol blue, 6% Glycerol, 2% SDS, 50 mM Tris-Cl (pH 6.8)) and analyzed by SDS-PAGE and immunoblot.
Supplementary Figure 1. Endogenous PBRM1 and p53 physically associate in kidney […]
μM) for 8 h and harvested for immunoprecipitation with control IgG and p53 antibodies. The bound PBRM1 and p53 were examined by immunoblots. Source data are provided as a Source […]
(1 picture or pasted object on this page, not shown here)

p53 binding to CDKN1A = experiment: ChIP-qPCR, p53 antibody, CDKN1A gene, RCC4 cells; assay type: cell-based; set-up: p53 ChIP at CDKN1A-intron / p53 ChIP at CDKN1A-RE1 / p53 ChIP at CDKN1A-TSS: unit not given here; conditions: 24 h; for p53 ChIP at CDKN1A-RE1 / p53 ChIP at CDKN1A-TSS / p53 ChIP at CDKN1A-intron: 100 μM
Procedure: as §1
ChIP assays were performed with the Pierce Agarose ChIP Kit (26156, Thermo Scientific) according to the manufacturer’s instructions with minor revisions. In brief, samples were crosslinked with 1% paraformaldehyde and halted by 125 mM glycine. After washing twice with ice-cold PBS, cells were harvested and suspended in Lysis Buffer 1 and incubated on ice for 10 min. 1 × 10^7 nuclei were resuspended in 500 μl MNase Digestion Buffer containing 6.25 U Micrococcal Nuclease and incubated at 37 °C for 15 min. After the reaction was stopped, nuclei were pelleted by centrifugation and resuspended in 250 μl Lysis Buffer 2. Nuclei were sonicated at 10% amplitude for 10 s twice and incubated on ice for 30 min. After centrifugation, 50 μl supernatant containing the digested chromatin from 2 × 10^6 nuclei was diluted in 1× IP Dilution Buffer and incubated with antibodies (normal rabbit IgG for control, 1 μg FL393 + 1 μg DO-1 for p53 or 2 μg Flag M2 for Flag-PBRM1) overnight at 4 °C. […] of ChIP Grade Protein A/G Plus Agarose was added and incubated for 1 h at 4 °C. The agarose resins were washed once with IP Wash Buffer 1, twice with IP Wash Buffer 2 and once with IP Wash Buffer 3. 150 μl 1× IP Elution Buffer was added to the washed resin and incubated at 65 °C for 30 min with shaking. The eluate was treated with Proteinase K and DNA was extracted with columns provided in the kit.

endogenous PBRM1 and p53 [3] = experiment: Endogenous p53 immunoprecipitation, HEK293 cells; assay type: cell-based, human; conditions: 50 μM, 8 h
Text: Fig. 1 PBRM1 and p53 display a physical association that is enhanced after DNA damage. a U2OS cells (left) and HEK293T cells (right) were transfected with vector or Flag-PBRM1 and harvested for immunoprecipitation with Flag-M2 beads and elution with 3X Flag peptide. […] Lysates were subjected to immunoprecipitation with Flag-M2 beads. […] Lysates were immunoprecipitated with p53 antibody. The bound PBRM1 and p53 were examined by immunoblots. Source data are provided as a Source Data file.

Q: COc1cc([C@@H]2c3cc4c(cc3[C@@H](O[C@@H]3O[C@@H]5CO[C@@H](C)O[C@H]5[C@H](O)[C@H]3O)[C@H]3COC(=O)[C@H]23)OCO4)cc(OC)c1O [Etoposide] was tested. Which “p21 induction by p53 with PBRM1 knockdown” value [1] did it give?
A: significantly reduced p21 induction

Q: And the “endogenous PBRM1 associated with endogenous p53” value (endogenous PBRM1 and p53 [2])?
A: increased endogenous p53 associated with more endogenous PBRM1

Q: What about the “p53 binding to CDKN1A RE1 with PBRM1” value (p53 binding to CDKN1A; 100 μM etoposide, RCC4) of the same compound?
A: significantly enhanced by wild-type but not BD4* mutant PBRM1

Q: What about the “p53 ChIP at CDKN1A-RE1” value (p53 binding to CDKN1A; RCC4-GFP, assay 1) of the same compound?
A: 1.555

Q: What about the “p53 ChIP at CDKN1A-TSS” value (p53 binding to CDKN1A; RCC4-GFP, assay 1) of the same compound?
A: 0.1782

Q: And the “p53 ChIP at CDKN1A-intron” value (p53 binding to CDKN1A; RCC4-GFP, assay 1)?
A: 0.077

Q: What about the “p53 ChIP at CDKN1A-RE1” value (p53 binding to CDKN1A; RCC4-GFP, assay 2) of the same compound?
A: 1.8621

Q: And the “p53 ChIP at CDKN1A-TSS” value (p53 binding to CDKN1A; RCC4-GFP, assay 2)?
A: 0.1891

Q: And the “p53 ChIP at CDKN1A-intron” value (p53 binding to CDKN1A; RCC4-GFP, assay 2)?
A: 0.0504

Q: And the “p53 ChIP at CDKN1A-RE1” value (p53 binding to CDKN1A; RCC4-GFP, assay 3)?
A: 1.9888

Q: And the “p53 ChIP at CDKN1A-TSS” value (p53 binding to CDKN1A; RCC4-GFP, assay 3)?
A: 0.2677

Q: And the “p53 ChIP at CDKN1A-intron” value (p53 binding to CDKN1A; RCC4-GFP, assay 3)?
A: 0.06

Q: And the “p53 ChIP at CDKN1A-RE1” value (p53 binding to CDKN1A; RCC4-PBRM1-BD4*, assay 1)?
A: 1.5332

Q: And the “p53 ChIP at CDKN1A-TSS” value (p53 binding to CDKN1A; RCC4-PBRM1-BD4*, assay 1)?
A: 0.1764

Q: What about the “p53 ChIP at CDKN1A-intron” value (p53 binding to CDKN1A; RCC4-PBRM1-BD4*, assay 1) of the same compound?
A: 0.0801

Q: And the “p53 ChIP at CDKN1A-RE1” value (p53 binding to CDKN1A; RCC4-PBRM1-BD4*, assay 2)?
A: 1.7924

Q: And the “p53 ChIP at CDKN1A-TSS” value (p53 binding to CDKN1A; RCC4-PBRM1-BD4*, assay 2)?
A: 0.1865

Q: And the “p53 ChIP at CDKN1A-intron” value (p53 binding to CDKN1A; RCC4-PBRM1-BD4*, assay 2)?
A: 0.0517

Q: And the “p53 ChIP at CDKN1A-RE1” value (p53 binding to CDKN1A; RCC4-PBRM1-BD4*, assay 3)?
A: 1.8343

Q: What about the “p53 ChIP at CDKN1A-TSS” value (p53 binding to CDKN1A; RCC4-PBRM1-BD4*, assay 3) of the same compound?
A: 0.221

Q: And the “p53 ChIP at CDKN1A-intron” value (p53 binding to CDKN1A; RCC4-PBRM1-BD4*, assay 3)?
A: 0.0545

Q: And the “p53 ChIP at CDKN1A-RE1” value (p53 binding to CDKN1A; RCC4-PBRM1, assay 1)?
A: 1.8428

Q: And the “p53 ChIP at CDKN1A-TSS” value (p53 binding to CDKN1A; RCC4-PBRM1, assay 1)?
A: 0.2655

Q: What about the “p53 ChIP at CDKN1A-intron” value (p53 binding to CDKN1A; RCC4-PBRM1, assay 1) of the same compound?
A: 0.0601

Q: What about the “p53 ChIP at CDKN1A-RE1” value (p53 binding to CDKN1A; RCC4-PBRM1, assay 2) of the same compound?
A: 2.4571

Q: What about the “p53 ChIP at CDKN1A-TSS” value (p53 binding to CDKN1A; RCC4-PBRM1, assay 2) of the same compound?
A: 0.2336

Q: And the “p53 ChIP at CDKN1A-intron” value (p53 binding to CDKN1A; RCC4-PBRM1, assay 2)?
A: 0.0759

Q: What about the “p53 ChIP at CDKN1A-RE1” value (p53 binding to CDKN1A; RCC4-PBRM1, assay 3) of the same compound?
A: 2.4942

Q: And the “p53 ChIP at CDKN1A-TSS” value (p53 binding to CDKN1A; RCC4-PBRM1, assay 3)?
A: 0.2293

Q: What about the “p53 ChIP at CDKN1A-intron” value (p53 binding to CDKN1A; RCC4-PBRM1, assay 3) of the same compound?
A: 0.0609

Q: What about the “endogenous PBRM1 precipitated by p53” value (endogenous PBRM1 and p53 [3]) of the same compound?
A: increased the amount of endogenous PBRM1 precipitated
